Data reported in patent publication US20250353873A1, “COMPOUNDS AND METHODS FOR MODULATING APOE EXPRESSION” (Ionis Pharmaceuticals, Inc., priority 2024, published 2025).
Where “and” joins values, the source holds several entries; their conditions need not be identical. Equal entries are not always repeated. Strand notation (5' to 3'): a small letter for the sugar, then the base; units joined by * are phosphorothioate-linked, units joined directly phosphodiester-linked; [ ] holds rarer units or linkages, { } end groups; capitals alone tell only the bases. [ms] = mesyl phosphoramidate linkage; e = 2'-O-(2-methoxyethyl) (MOE); k = constrained ethyl (cEt); [5mC] = 5-methylcytosine; d = 2'-deoxy (DNA)

Columns and labels:
human APOE RNA [1] = test: Dose-dependent reduction of human APOE RNA in HepG2 cells, electroporation, 20,000 cells per well, average of GAPDH- and PPIA-normalized results (Example 4, Table 12); type: cell-based; settings: HepG2, 20,000 cells per well
In short: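 Modified oligonucleotides at various concentrations were electroporated into HepG2 cells. APOE RNA was quantified by RT-qPCR, normalized separately to GAPDH and PPIA, and the two averaged as % of untreated control; IC50 was calculated from the dose series.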

human APOE RNA [2] = test: Dose-dependent inhibition of human APOE RNA in differentiated SH-SY5Y cells, free uptake, 5 days (Example 5); type: cell-based
In short: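 Differentiated SH-SY5Y cells (10,000/well) treated by free uptake with graded oligonucleotide concentrations for 5 days. APOE RNA quantified with primer probe set RTS3073, normalized to PPIA, expressed as % untreated control; IC50 calculated.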

human APOE RNA [3] = test: Activity in APOE C57BL/6NTac-Apoeem7250 knock-in mice, single ICV bolus, 4 weeks (Example 10); type: in vivo; settings: single ICV bolus 300 μg, 4 weeks post treatment, normalized to mouse Ppia
In short: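 Knock-in mice (2–4 per group) received one 300 μg ICV bolus of oligonucleotide or PBS. After four weeks, human APOE RNA in cortex and spinal cord measured by RT-qPCR (primer probe set RTS3073), normalized to mouse Ppia, expressed as % of PBS controls.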

human APOE RNA [4] = test: Activity in APOE C57BL/6NTac-Apoeem7250 knock-in mice, single ICV bolus, 8 weeks (Example 11); type: in vivo
In short: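 Human APOE knock-in C57BL/6NTac mice given one ICV bolus of 300 μg oligonucleotide; PBS-dosed group as control. At 8 weeks, cortex and spinal cord RNA measured by qRT-PCR (human probe RTS3073), normalized to mouse Ppia, expressed as % of PBS control.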

human APOE RNA [5] = test: Potency (dose response, ED50) in APOE C57BL/6NTac-Apoeem7250 knock-in mice, 4 weeks (Example 14); type: in vivo
In short: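 Knock-in mice (3–4 per group) received a single ICV bolus of oligonucleotide, with PBS as control. At four weeks, cortex and spinal cord RNA was analysed by RT-qPCR with a human primer probe set, normalized to mouse Ppia, and expressed as % PBS control. ED50 was calculated from the dose response.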

For “Aes^mCeoTeoTesGesGksTdsGdzAdzAdzTds^mCdsTdsTdsTdsAdzTksTksAesAe (eA*e[5mC]eTeT*eG*kG*dT*dG[ms]dA[ms]dA[ms]dT*d[5mC]*dT*dT*dT*dA[ms]kT*kT*eA*eA) [Compound No. 1757576]”, the “APOE RNA (% UTC)” value (human APOE RNA [1]; 5 nM) was 94 % UTC, the “APOE RNA (% UTC)” value (human APOE RNA [1]; 13 nM) was 88 % UTC and the “APOE RNA (% UTC)” value (human APOE RNA [1]; 33 nM) was 83 % UTC. The “APOE RNA (% UTC)” value (human APOE RNA [1]; 82 nM) was 77 % UTC, the “APOE RNA (% UTC)” value (human APOE RNA [1]; 205 nM) was 61 % UTC and the “APOE RNA (% UTC)” value (human APOE RNA [1]; 512 nM) was 40 % UTC. The “APOE RNA (% UTC)” value (human APOE RNA [1]; 1,280 nM) was 29 % UTC, the “APOE RNA (% UTC)” value (human APOE RNA [1]; 3,200 nM) was 22 % UTC and the “APOE RNA (% UTC)” value (human APOE RNA [1]; 8,000 nM) was 11 % UTC. For the same substance, the “APOE RNA (% UTC)” value (human APOE RNA [1]; 20,000 nM) was 6 % UTC, the IC50 (human APOE RNA [1]; approximately 24 hours) was 370 nM and the “APOE RNA (% UTC)” value (human APOE RNA [2]; 5 nM, 5 days (Table 13)) was 75 % UTC. For the same substance, the “APOE RNA (% UTC)” value (human APOE RNA [2]; 5 nM, 5 days (Table 14)) was 68 % UTC, the “APOE RNA (% UTC)” value (human APOE RNA [2]; 13 nM, 5 days (Table 13)) was 71 % UTC and the “APOE RNA (% UTC)” value (human APOE RNA [2]; 13 nM, 5 days (Table 14)) was 51 % UTC. For the same substance, the “APOE RNA (% UTC)” value (human APOE RNA [2]; 33 nM, 5 days (Table 13)) was 45 % UTC, the “APOE RNA (% UTC)” value (human APOE RNA [2]; 33 nM, 5 days (Table 14)) was 44 % UTC and the “APOE RNA (% UTC)” value (human APOE RNA [2]; 82 nM, 5 days (Table 13)) was 42 % UTC. For the same substance, the “APOE RNA (% UTC)” value (human APOE RNA [2]; 82 nM, 5 days (Table 14)) was 35 % UTC, the “APOE RNA (% UTC)” value (human APOE RNA [2]; 205 nM, 5 days (Table 13)) was 43 % UTC and the “APOE RNA (% UTC)” value (human APOE RNA [2]; 205 nM, 5 days (Table 14)) was 32 % UTC. The “APOE RNA (% UTC)” value (human APOE RNA [2]; 512 nM, 5 days (Table 13)) was 31 % UTC, the “APOE RNA (% UTC)” value (human APOE RNA [2]; 512 nM, 5 days (Table 14)) was 32 % UTC and the “APOE RNA (% UTC)” value (human APOE RNA [2]; 1,280 nM, 5 days (Table 13)) was 29 % UTC. For the same substance, the “APOE RNA (% UTC)” value (human APOE RNA [2]; 1,280 nM, 5 days (Table 14)) was 27 % UTC, the “APOE RNA (% UTC)” value (human APOE RNA [2]; 3,200 nM, 5 days (Table 13)) was 27 % UTC and the “APOE RNA (% UTC)” value (human APOE RNA [2]; 3,200 nM, 5 days (Table 14)) was 23 % UTC. For the same substance, the “APOE RNA (% UTC)” value (human APOE RNA [2]; 8,000 nM, 5 days (Table 13)) was 12 % UTC, the “APOE RNA (% UTC)” value (human APOE RNA [2]; 8,000 nM, 5 days (Table 14)) was 17 % UTC and the “APOE RNA (% UTC)” value (human APOE RNA [2]; 20,000 nM, 5 days (Table 13)) was 18 % UTC. For the same substance, the “APOE RNA (% UTC)” value (human APOE RNA [2]; 20,000 nM, 5 days (Table 14)) was 6 % UTC, the IC50 (human APOE RNA [2]; 5 days (Table 13)) was 70 nM and the IC50 (human APOE RNA [2]; 5 days (Table 14)) was 20 nM. For the same substance, the “APOE RNA (% control) Cortex” value (human APOE RNA [3]; cortex) was 29 % control, the “APOE RNA (% control) Spinal Cord” value (human APOE RNA [3]; spinal cord) was 23 % control and the “reduction of human APOE RNA in the cortex” value (human APOE RNA [4]; APOE knock-in mouse model, 8 weeks post administration, assay of Example 11) was 79%. The “APOE RNA (% control) Cortex” value (human APOE RNA [4]; cortex, single ICV bolus 300 μg, 8 weeks post treatment, normalized to mouse Ppia) was 29 % control and 21 % control, the “APOE RNA (% control) Spinal Cord” value (human APOE RNA [4]; spinal cord, single ICV bolus 300 μg, 8 weeks post treatment, normalized to mouse Ppia) was 15 % control and 10 % control and the “APOE RNA (% control) Cortex” value (human APOE RNA [5]; cortex, ICV dose 10 μg) was 108 % control. For the same substance, the “APOE RNA (% control) Cortex” value (human APOE RNA [5]; cortex, ICV dose 30 μg) was 121 % control, the “APOE RNA (% control) Cortex” value (human APOE RNA [5]; cortex, ICV dose 100 μg) was 63 % control and the “APOE RNA (% control) Cortex” value (human APOE RNA [5]; cortex, ICV dose 300 μg) was 37 % control. For the same substance, the “APOE RNA (% control) Cortex” value (human APOE RNA [5]; cortex, ICV dose 700 μg) was 31 % control, the “ED 50 (μg) Cortex” value (human APOE RNA [5]; cortex, single ICV bolus, GraphPad Prism 10) was 235.5 µg and the “APOE RNA (% control) Spinal Cord” value (human APOE RNA [5]; spinal cord, ICV dose 10 μg) was 58 % control. For the same substance, the “APOE RNA (% control) Spinal Cord” value (human APOE RNA [5]; spinal cord, ICV dose 30 μg) was 55 % control, the “APOE RNA (% control) Spinal Cord” value (human APOE RNA [5]; spinal cord, ICV dose 100 μg) was 23 % control and the “APOE RNA (% control) Spinal Cord” value (human APOE RNA [5]; spinal cord, ICV dose 300 μg) was 20 % control. For the same substance, the “APOE RNA (% control) Spinal Cord” value (human APOE RNA [5]; spinal cord, ICV dose 700 μg) was 18 % control and the “ED 50 (μg) Spinal Cord” value (human APOE RNA [5]; spinal cord, single ICV bolus, GraphPad Prism 10) was 23.0 µg.
